US20240360194A1, “New Peptides as Potent and Selective GIP Receptor Agonists” (Sanofi, priority 2021, published 2024)
≈ marks a conversion by molar mass, not a printed value. Numbered stars: 1 amine (or outer) side, 2 acyl side, 3 side chain; on linkers, the order of the positions; unused ones are H or OH. Square brackets hold non-standard residues; d marks the D form. Side chains are listed from the residue outwards. Ends that are not written are not given here. Peptide text beside a SMILES is read from it. * marks the point of attachment. C18 diacid = O=C(O)CCCCCCCCCCCCCCCCC(=O)*; γGlu = O=C(O)[C@H](CCC(=O)[*:2])N[*:1]; AEEA = NCCOCCOCC(=O)O; Aib = CC(C)(N)C(=O)O

T1: human GIP receptor (Homo sapiens, UniProt P48546)
T1 construct: human adipocytes endogenously expressing the human GIP receptor; host or cells: human preadipocytes (Lonza) differentiated to adipocytes
T1 sequence (P48546 22-466): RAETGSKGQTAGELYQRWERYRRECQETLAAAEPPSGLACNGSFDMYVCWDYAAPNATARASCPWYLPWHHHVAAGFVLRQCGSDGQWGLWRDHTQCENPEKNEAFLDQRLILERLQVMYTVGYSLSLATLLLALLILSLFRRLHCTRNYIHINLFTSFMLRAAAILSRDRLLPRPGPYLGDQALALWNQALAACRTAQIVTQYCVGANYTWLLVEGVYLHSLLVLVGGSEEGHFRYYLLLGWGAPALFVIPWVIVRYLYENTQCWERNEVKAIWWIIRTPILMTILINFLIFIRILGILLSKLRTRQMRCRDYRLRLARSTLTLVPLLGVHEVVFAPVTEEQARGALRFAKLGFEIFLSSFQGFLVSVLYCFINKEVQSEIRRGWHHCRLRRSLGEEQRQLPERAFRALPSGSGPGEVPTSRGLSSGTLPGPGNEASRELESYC

T2: human GIP receptor (hGIPR) (Homo sapiens, UniProt P48546)
T2 sequence (P48546 22-466): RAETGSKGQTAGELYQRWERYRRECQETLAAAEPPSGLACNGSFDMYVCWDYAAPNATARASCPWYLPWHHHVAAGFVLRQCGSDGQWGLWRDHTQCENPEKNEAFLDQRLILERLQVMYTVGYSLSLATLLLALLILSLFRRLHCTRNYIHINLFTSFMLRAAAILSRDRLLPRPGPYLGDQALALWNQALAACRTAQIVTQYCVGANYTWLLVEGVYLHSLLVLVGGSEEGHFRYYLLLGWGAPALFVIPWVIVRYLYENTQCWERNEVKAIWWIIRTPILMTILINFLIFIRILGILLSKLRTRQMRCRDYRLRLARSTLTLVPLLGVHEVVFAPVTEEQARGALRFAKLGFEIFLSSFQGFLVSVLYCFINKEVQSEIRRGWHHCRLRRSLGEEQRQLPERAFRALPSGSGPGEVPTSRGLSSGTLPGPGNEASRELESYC

T3: human GIP receptor (human), P48546
T3 chain: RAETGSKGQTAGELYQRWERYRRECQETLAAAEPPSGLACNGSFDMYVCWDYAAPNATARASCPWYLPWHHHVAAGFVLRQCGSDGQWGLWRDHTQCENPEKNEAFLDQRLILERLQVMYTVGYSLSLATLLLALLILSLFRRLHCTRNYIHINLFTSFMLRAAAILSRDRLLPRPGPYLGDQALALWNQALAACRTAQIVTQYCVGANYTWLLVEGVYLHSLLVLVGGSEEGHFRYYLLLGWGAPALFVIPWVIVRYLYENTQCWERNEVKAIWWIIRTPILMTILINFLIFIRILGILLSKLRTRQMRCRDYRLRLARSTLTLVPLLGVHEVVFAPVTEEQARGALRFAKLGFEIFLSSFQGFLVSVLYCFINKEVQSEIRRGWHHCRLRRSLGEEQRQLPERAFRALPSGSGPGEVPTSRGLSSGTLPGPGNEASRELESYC

T4: human GLP-1 receptor (human), P43220
T4 chain: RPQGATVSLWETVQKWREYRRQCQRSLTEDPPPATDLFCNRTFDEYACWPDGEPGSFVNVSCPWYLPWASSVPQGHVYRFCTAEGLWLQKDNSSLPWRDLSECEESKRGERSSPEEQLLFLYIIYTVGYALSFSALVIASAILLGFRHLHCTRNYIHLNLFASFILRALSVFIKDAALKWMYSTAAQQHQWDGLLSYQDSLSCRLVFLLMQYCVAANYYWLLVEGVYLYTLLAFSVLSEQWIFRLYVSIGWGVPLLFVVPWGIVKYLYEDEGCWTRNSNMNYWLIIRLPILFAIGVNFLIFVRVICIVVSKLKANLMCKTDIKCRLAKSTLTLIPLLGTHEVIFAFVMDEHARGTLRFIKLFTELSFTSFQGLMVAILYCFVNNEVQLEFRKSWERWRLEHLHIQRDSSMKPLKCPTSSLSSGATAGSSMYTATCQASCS

B1: SEQ ID NO: 38 (peptide)
peptide: Y[Aib]EGTFISDLSI[Aib]LEEQKQ[Aib]EFIEWLLAQGPSSGEPPPS-NH2

Columns and labels:
[1] = target: human GLP-1 receptor (hGLP-1R) (Homo sapiens, UniProt P43220); assay: In vitro cellular cAMP assay for GLP-1 receptor efficacy (HEK-293 cell line over-expressing receptor); format: cell-based; conditions: HEK-293, 0.1% BSA
[2] = Chemical stability assessment (UHPLC-UV purity loss on storage in solution); format: physicochemical; conditions: Chemical stability buffer system A: 20 mM phosphate buffer pH 7.4; ~300 μM
Procedure: Purity of a peptide batch was determined through UHPLC/MS prior to chemical stability measurement. The target concentration was 300 μM pure compound. Solutions from solid samples were prepared in the following buffer systems with a concentration of ˜300 μM compound based on the previously determined % purity: • Chemical stability buffer system A) 20 mM phosphate buffer pH 7.4, • Chemical stability buffer system B) 8 mM phosphate buffer pH 7.4, 14 mg/ml propylene glycol, 5.5 mg/ml phenol • Chemical stability buffer system C) 100 mM phosphate buffer pH 7.4, 2.7 mg/ml m-cresol
Prepared solutions were filtered through […] pore size and filled into sterilized glass containers under laminar flow conditions.
Glass containers were stored for 28 days at 5 and 40° C. After this time, the samples were centrifuged for 15 min at 2500 RCF. Then 1.5 μl of the undiluted supernatant were analysed with UHPLC-UV.
The chemical stability was rated through the relative loss of purity calculated by the equation: […]
The purity is calculated as
The analytical methods used were Analytical UHPLC Method B or C.
Peptide samples were prepared in Chemical stability buffer system A or B and stability was assessed as described in Methods.

human GIP receptor = target: T1, human GIP receptor; assay: In vitro cellular cAMP assay for GIP receptor efficacy (human adipocytes); format: cell-based; conditions: read-out: hGIPR Emax
Summary of the method: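 Human preadipocytes expanded, then differentiated 6 days (insulin, dexamethasone, PPARγ agonist, 200 μM IBMX, L-thyroxine) before plating at 5000 cells/well. Test compound applied 30 min at room temperature; cAMP measured by HTRF after 1 h with lysis-buffer reagents, read as 665/620 nm fluorescence ratio.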

[3] = Solubility assessment (UHPLC-UV of supernatant, target 10 mg/ml); format: physicochemical
Summary of the method: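 Peptides at 10 mg/ml (purity-corrected) in 100 mM phosphate pH 7.4, optionally with 2.7 mg/ml m-cresol; gentle agitation 1 h, then 5° C. overnight (24 h). Supernatant after 15 min centrifugation at 2500 RCF quantified by UHPLC-UV, with sequence-based extinction coefficients.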

[4] = target: T2, human GIP receptor (hGIPR); assay: Binding assay, displacement of [125I]GIP from HEK-293 membranes over-expressing GIPR (SPA); conditions: [125I]GIP displacement
Summary of the method: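 Membranes from HEK-293 cells over-expressing human GIPR or GLP-1R, isolated by homogenising, sonicating and ultracentrifuging at 100000×g into HEPES/EDTA/NaCl buffer with protease inhibitors, were used for binding.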

[5] = target: T3, human GIP receptor (human), P48546; assay: displacement of [125I]GIP from HEK-293 membranes expressing hGIPR (SPA beads)
[6] = target: T4, human GLP-1 receptor (human), P43220; assay: displacement of [125I]GLP-1 from HEK-293 membranes expressing hGLP-1R (SPA beads)
[7] = target: T3, human GIP receptor (human), P48546; assay: cell-based or functional assay

Molecule	EC50 [1] [nM]	Relative purity loss over 28 days at 40° C. [2] [%]	Emax (human GIP receptor) [%]	Soluble amount ([3]; 24 h, pH 7.4) [mg/mL]	solubility at 24 h ([3]; pH 7.4, Soluble amount) [µg/mL]	IC50 [4] [nM]	IC50 [5] [nM]	IC50 [6] [nM]	EC50 hGIPR 0% HSA (cAMP, HEK-293) [7] [nM]	EC50 hGIPR 0.1% BSA (cAMP, HEK-293) [7] [nM]	hGIPR EC50 (cAMP, human adipocytes) [7] [nM]	hGIPR Emax (cAMP, human adipocytes) [7] [%]
CC[C@H](C)[C@H](NC(=O)[C@H](CCCNC(=N)N)NC(=O)[C@H](CC(=O)O)NC(=O)[C@H](CCCCNC(=O)COCCOCCNC(=O)COCCOCCNC(=O)CC[C@H](NC(=O)CCCCCCCCCCCCCCCCC(=O)O)C(=O)O)NC(=O)C(C)(C)NC(=O)[C@@H](NC(=O)[C@H](CO)NC(=O)[C@H](CC(C)C)NC(=O)[C@H](CC(=O)O)NC(=O)[C@H](CO)NC(=O)[C@@H](NC(=O)[C@H](Cc1ccccc1)NC(=O)[C@@H](NC(=O)CNC(=O)[C@H](CCC(=O)O)NC(=O)C(C)(C)NC(=O)[C@@H](N)Cc1ccc(O)cc1)[C@@H](C)O)[C@@H](C)CC)[C@@H](C)CC)C(=O)N[C@@H](Cc1c[nH]cn1)C(=O)N[C@@H](CCC(N)=O)C(=O)NC(C)(C)C(=O)N[C@@H](CCC(=O)O)C(=O)N[C@@H](Cc1ccccc1)C(=O)N[C@H](C(=O)N[C@@H](CCC(=O)O)C(=O)N[C@@H](Cc1c[nH]c2ccccc12)C(=O)N[C@@H](CC(C)C)C(=O)N[C@@H](CC(C)C)C(=O)N[C@@H](C)C(=O)N[C@@H](CCC(N)=O)C(=O)N[C@@H](CCC(=O)O)C(=O)N1CCC[C@H]1C(=O)N[C@@H](CO)C(=O)N[C@@H](CO)C(=O)NCC(=O)N[C@@H](C)C(=O)N1CCC[C@H]1C(=O)N1CCC[C@H]1C(=O)N1CCC[C@H]1C(=O)N[C@@H](CO)C(N)=O)[C@@H](C)CC [SEQ ID NO: 29, H2N-Y-Aib-E-G-T-F-I-S-D-L-S-I-Aib-K[{AEEA}2-gGlu-C18OH]-D-R-I-H-Q-Aib-E-F-I-E-W-L-L-A-Q-E-P-S-S-G-A-P-P-P-S-NH2] (H-Y[Aib]EGTFISDLSI[Aib]K([AEEA-AEEA-γGlu-C18 diacid])DRIHQ[Aib]EFIEWLLAQEPSSGAPPPS-NH2)	> 10	5.6	119	9.1	8000 (≈ 1590 µM)	0.2	–	–	–	–	–	–
B1	–	–	–	–	–	–	0.2	73	0.00019	0.0531	0.4	92
